Consider one substance from patent publication US20260008862A1, “Bispecific Anti-BCMA x Anti-CD3 Antibodies and Uses Thereof” (Regeneron Pharmaceuticals, Inc., priority 2018, published 2026).

The test deals with Jurkat/NFATLuc.3C7 cells + NCI-H929 cells. Description: Jurkat/NFATLuc reporter bioassay with NCI-H929 cells. Format: cell-based. As to conditions: highest RLU / lowest RLU. The protocol: Activity of the anti-BCMA×anti-CD3 bispecific antibodies were assessed in a Jurkat/NFATLuc reporter bioassay utilizing several cell lines with varying levels of BCMA surface expression. The Jurkat cells were engineered to express an NFAT-luciferase reporter (Jurkat/NFATLuc.3C7), and 50,000 Jurkat reporter cells were combined with 50,000 BCMA positive (Daudi, MM1-S, NCI-H929, OPM-2, RPMI-8226, MOLP-8, or Raji) or BCMA negative (HEK293) cells in Thermo Nunclon delta 96 well white microwell plates (Thermo Scientific, Cat #136102) in 50 ul of assay media (RPMI media with 10% FBS and 1% P/S/G). Three-fold serial dilutions of the BCMA×CD3 bispecific antibodies (mAb25441 D or mAb25442D), or a bivalent anti-BCMA antibody (mAb21581) were immediately added in 50 μL of assay buffer. The plates were gently agitated and incubated in a 37° C., 5% CO2 incubator for 4-6 hours. NFAT-Luciferase activity was determined using Promega One-Glo (Cat #E6130) and a Perkin Elmer Envision plate reader. RLU were plotted in GraphPad Prism using a four-parameter logistic equation over a 12-point response curve to calculate EC50 values. […] The signal to noise (S:N) is determined by taking the ratio of the highest RLU on the curve to the lowest.

As for “REGN5458: anti-BCMA×anti-CD3 bispecific antibody: BCMA HCVR of mAb21581 (SEQ 66), CD3 HCVR of mAb7221G (SEQ 90), common LCVR SEQ 82”, the “S:N” value is 39.
